According to ChEMBL document CHEMBL3407479, “Structure-activity relationship for the oxadiazole class of antibiotics” (J Med Chem, 2015):
≈ marks a conversion by molar mass, not a printed value.

System: Staphylococcus aureus
Test: Antibacterial activity against methicillin-sensitive Staphylococcus aureus ATCC 29213 after 16 to 20 hrs by broth microdilution method
Format: functional

Structure (SMILES)	MIC
Nc1ccc(-c2nc(-c3ccc(Oc4ccccc4)cc3)no2)cc1	4 µg/mL (≈ 12.1 µM)
Oc1cc(-c2nc(-c3ccc(Oc4ccccc4)cc3)no2)ccc1I	≥ 128 µg/mL
CCOP(=O)(OCC)c1ccc(-c2nc(-c3ccc(Oc4ccc(F)cc4)cc3)no2)cc1	≥ 128 µg/mL
Nc1ccc(-c2nc(-c3ccc(Oc4ccc(C(F)(F)F)cc4)cc3)no2)cc1F	2 µg/mL (≈ 4.82 µM)
FC(F)(F)c1ccc(Oc2ccc(-c3noc(-c4cn[nH]n4)n3)cc2)cc1	16 µg/mL (≈ 42.9 µM)
COc1cc(-c2nc(-c3ccc(Oc4ccccc4)cc3)no2)ccc1N	≥ 128 µg/mL
O=[N+]([O-])c1ccc(-c2nc(-c3ccc(Oc4ccc(C(F)(F)F)cc4)cc3)no2)cc1	≥ 128 µg/mL
C=CCOc1cc(N)ccc1-c1nc(-c2ccc(Oc3ccccc3)cc2)no1	8 µg/mL (≈ 20.8 µM)
Fc1ccc(Oc2ccc(-c3noc(-c4cc[nH]n4)n3)cc2)cc1	≥ 128 µg/mL
Fc1ccc(Oc2ccc(-c3noc(-c4ccc(Br)cc4)n3)cc2)cc1	≥ 128 µg/mL
FC(F)(F)c1ccc(Oc2ccc(-c3noc(-c4cc[nH]n4)n3)cc2)cc1	≥ 128 µg/mL
O=[N+]([O-])c1c[nH]c(-c2nc(-c3ccc(Oc4ccc(C(F)(F)F)cc4)cc3)no2)c1	8 µg/mL (≈ 19.2 µM)
CS(=O)(=O)Nc1ccc(-c2nc(-c3ccc(Oc4ccc(C(F)(F)F)cc4)cc3)no2)cc1	≥ 128 µg/mL
C[Si](C)(C)C#Cc1c[nH]nc1-c1nc(-c2ccc(Oc3ccc(C(F)(F)F)cc3)cc2)no1	≥ 128 µg/mL
Cl.NC(Cc1ccccc1)c1nc(-c2ccc(Oc3ccccc3)cc2)no1 (stereo not drawn)	≥ 128 µg/mL
O=[N+]([O-])c1cc(-c2nc(-c3ccc(Oc4ccc(C(F)(F)F)cc4)cc3)no2)cnc1O	8 µg/mL (≈ 18 µM)
Nc1ccc(-c2nc(-c3ccc(Oc4ccc(C(F)(F)F)cc4)cc3)no2)cc1	1 µg/mL (≈ 2.52 µM)
Oc1ccc(-c2nc(-c3ccc(Oc4ccc(C(F)(F)F)cc4)cc3)no2)cn1	≥ 128 µg/mL
FC(F)(F)c1ccc(Oc2ccc(-c3noc(-c4n[nH]cc4Br)n3)cc2)cc1	1 µg/mL (≈ 2.22 µM)
Clc1c[nH]nc1-c1nc(-c2ccc(Oc3ccccc3)cc2)no1	1 µg/mL (≈ 2.95 µM)
Oc1c(F)cc(-c2nc(-c3ccc(Oc4ccc(C(F)(F)F)cc4)cc3)no2)cc1F	2 µg/mL (≈ 4.6 µM)
O=[N+]([O-])c1c[nH]nc1-c1nc(-c2ccc(Oc3ccc(F)cc3)cc2)no1	1 µg/mL (≈ 2.72 µM)
O=[N+]([O-])c1c[nH]c(-c2nc(-c3ccc(Oc4ccc(F)cc4)cc3)no2)c1	≥ 128 µg/mL
Fc1ccc(-c2nc(-c3ccc(Oc4ccc(C(F)(F)F)cc4)cc3)no2)cc1	≥ 128 µg/mL
COc1cc(-c2nc(-c3ccc(Oc4ccc(C(F)(F)F)cc4)cc3)no2)ccc1O	≥ 128 µg/mL
Nc1cc(-c2nc(-c3ccc(Oc4ccc(F)cc4)cc3)no2)ccc1O	≥ 128 µg/mL

Structure (SMILES)	MIC
Fc1ccc(Oc2ccc(-c3noc(-c4n[nH]c5ccccc45)n3)cc2)cc1	≥ 128 µg/mL
NCCCCc1nc(-c2ccc(Oc3ccccc3)cc2)no1	≥ 128 µg/mL
COC(=O)c1ccc(-c2nc(-c3ccc(Oc4ccc(F)cc4)cc3)no2)cc1	≥ 128 µg/mL
Oc1ccccc1-c1nc(-c2ccc(Oc3ccccc3)cc2)no1	≥ 128 µg/mL
O=[N+]([O-])c1c[nH]nc1-c1nc(-c2ccc(Oc3ccc(C(F)(F)F)cc3)cc2)no1	2 µg/mL (≈ 4.79 µM)
O=C1C[C@H](c2nc(-c3ccc(Oc4ccc(C(F)(F)F)cc4)cc3)no2)CN1	≥ 128 µg/mL
O=C(Nc1c[nH]nc1-c1nc(-c2ccc(Oc3ccc(C(F)(F)F)cc3)cc2)no1)c1ccccc1	≥ 128 µg/mL
Fc1ccc(Oc2ccc(-c3noc(-c4ccc5[nH]ccc5c4)n3)cc2)cc1	1 µg/mL (≈ 2.69 µM)
CC(C)(C)OC(=O)N1CCC(Nc2c[nH]nc2-c2nc(-c3ccc(Oc4ccc(C(F)(F)F)cc4)cc3)no2)CC1	≥ 128 µg/mL
CC(C)c1cc(-c2nc(-c3ccc(Oc4ccc(F)cc4)cc3)no2)n[nH]1	≥ 128 µg/mL
Ic1c[nH]nc1-c1nc(-c2ccc(Oc3ccccc3)cc2)no1	1 µg/mL (≈ 2.32 µM)
COc1ccc(-c2nc(-c3ccc(Oc4ccc(F)cc4)cc3)no2)cc1[N+](=O)[O-]	≥ 128 µg/mL
CC(C)CNc1c[nH]nc1-c1nc(-c2ccc(Oc3ccc(C(F)(F)F)cc3)cc2)no1	≥ 128 µg/mL
O=C(Nc1c[nH]nc1-c1nc(-c2ccc(Oc3ccc(C(F)(F)F)cc3)cc2)no1)c1ccccn1	≥ 128 µg/mL
COc1ccc(-c2nc(-c3ccc(Oc4ccc(C(F)(F)F)cc4)cc3)no2)cc1[N+](=O)[O-]	≥ 128 µg/mL
COc1ccc(-c2nc(-c3ccc(Oc4ccc(C(F)(F)F)cc4)cc3)no2)cc1OC	≥ 128 µg/mL
c1ccc(Oc2ccc(-c3noc(C4CCOCC4)n3)cc2)cc1	≥ 128 µg/mL
c1ccc(Oc2ccc(-c3noc(-c4ccc5[nH]ncc5c4)n3)cc2)cc1	≥ 128 µg/mL
Oc1ccc(-c2nc(-c3ccc(Oc4ccc(F)cc4)cc3)no2)cc1F	2 µg/mL (≈ 5.46 µM)
Cl.Nc1ccc(-c2nc(-c3ccc(Oc4ccc(C(F)(F)F)cc4)cc3)no2)cc1	1 µg/mL
CCCCNc1c[nH]nc1-c1nc(-c2ccc(Oc3ccc(C(F)(F)F)cc3)cc2)no1	≥ 128 µg/mL
Brc1c[nH]nc1-c1nc(-c2ccc(Oc3ccccc3)cc2)no1	1 µg/mL (≈ 2.61 µM)
Nc1ccc(-c2nc(-c3ccc(Oc4ccc(F)cc4)cc3)no2)cc1	≥ 128 µg/mL
FC(F)(F)c1ccc(Oc2ccc(-c3noc(-c4c[nH]c5ncccc45)n3)cc2)cc1	≥ 128 µg/mL
Nc1c[nH]c(-c2nc(-c3ccc(Oc4ccc(F)cc4)cc3)no2)c1	≥ 128 µg/mL
NS(=O)(=O)c1ccc(-c2nc(-c3ccc(Oc4ccc(C(F)(F)F)cc4)cc3)no2)cc1	≥ 128 µg/mL

Structure (SMILES)	MIC
FC(F)(F)c1ccc(Oc2ccc(-c3noc(-c4ccc(Br)cc4)n3)cc2)cc1	≥ 128 µg/mL
FC(F)(F)c1ccc(Oc2ccc(-c3noc(-c4nc[nH]n4)n3)cc2)cc1	≥ 128 µg/mL
Fc1ccc(Oc2ccc(-c3noc(-c4c[nH]c5ncccc45)n3)cc2)cc1	≥ 128 µg/mL
Oc1ccc(-c2nc(-c3ccc(Oc4ccc(C(F)(F)F)cc4)cc3)no2)cc1O	2 µg/mL (≈ 4.83 µM)
COc1ccc(-c2nc(-c3ccc(Oc4ccccc4)cc3)no2)cc1N	≥ 128 µg/mL
NC(=O)c1ccc(-c2nc(-c3ccc(Oc4ccc(F)cc4)cc3)no2)cc1	≥ 128 µg/mL
O=[N+]([O-])c1c[nH]nc1-c1nc(-c2ccc(Oc3ccccc3)cc2)no1	2 µg/mL (≈ 5.73 µM)
COc1ccc(-c2nc(-c3ccc(Oc4ccccc4)cc3)no2)cc1[N+](=O)[O-]	≥ 128 µg/mL
Fc1ccc(Oc2ccc(-c3noc(-c4c[nH]cn4)n3)cc2)cc1	≥ 128 µg/mL
O=[N+]([O-])c1cc(-c2nc(-c3ccc(Oc4ccc(F)cc4)cc3)no2)cnc1O	8 µg/mL (≈ 20.3 µM)
Cl.c1ccc(Oc2ccc(-c3noc(C4CCCN4)n3)cc2)cc1 (stereo not drawn)	64 µg/mL
c1ccc(Oc2ccc(-c3noc(-c4ccncc4)n3)cc2)cc1	≥ 128 µg/mL
Oc1cccc(-c2nc(-c3ccc(Oc4ccccc4)cc3)no2)c1	≥ 128 µg/mL
COc1ccc(-c2nc(-c3ccc(Oc4ccc(F)cc4)cc3)no2)cc1OC	≥ 128 µg/mL
O=c1[nH]c(-c2ccc(Oc3ccccc3)cc2)no1	≥ 128 µg/mL
Nc1c(F)cc(-c2nc(-c3ccc(Oc4ccc(C(F)(F)F)cc4)cc3)no2)cc1F	4 µg/mL (≈ 9.23 µM)
Nc1ccc(-c2nc(-c3ccc(Oc4ccccc4)cc3)no2)cc1F	≥ 128 µg/mL
Oc1ccc(Cc2nc(-c3ccc(Oc4ccccc4)cc3)no2)cc1	8 µg/mL (≈ 23.2 µM)
Nc1cc(-c2nc(-c3ccc(Oc4ccc(F)cc4)cc3)no2)cnc1O	≥ 128 µg/mL
Nc1cc(-c2nc(-c3ccc(Oc4ccc(C(F)(F)F)cc4)cc3)no2)cnc1O	≥ 128 µg/mL
O=[N+]([O-])c1ccc(-c2nc(-c3ccc(Oc4ccccc4)cc3)no2)cc1	≥ 32 µg/mL
N#Cc1c[nH]nc1-c1nc(-c2ccc(Oc3ccc(C(F)(F)F)cc3)cc2)no1	2 µg/mL (≈ 5.03 µM)
FC(F)(F)c1ccc(Oc2ccc(-c3noc(-c4n[nH]cc4I)n3)cc2)cc1	2 µg/mL (≈ 4.01 µM)
NS(=O)(=O)c1ccc(-c2nc(-c3ccc(Oc4ccc(F)cc4)cc3)no2)cc1	≥ 128 µg/mL
Oc1ccc(-c2nc(-c3ccc(Oc4ccc(F)cc4)cc3)no2)cc1	1 µg/mL (≈ 2.87 µM)
OCC#Cc1c[nH]nc1-c1nc(-c2ccc(Oc3ccc(C(F)(F)F)cc3)cc2)no1	4 µg/mL (≈ 9.38 µM)

Structure (SMILES)	MIC
O=C1C[C@@H](c2nc(-c3ccc(Oc4ccc(C(F)(F)F)cc4)cc3)no2)CN1	≥ 128 µg/mL
Nc1c[nH]nc1-c1nc(-c2ccc(Oc3ccc(F)cc3)cc2)no1	16 µg/mL (≈ 47.4 µM)
Oc1ccc(-c2nc(-c3ccc(Oc4ccccc4)cc3)no2)cc1	1 µg/mL (≈ 3.03 µM)
CCOP(=O)(OCC)c1c[nH]nc1-c1nc(-c2ccc(Oc3ccc(C(F)(F)F)cc3)cc2)no1	≥ 128 µg/mL
CC(=O)Nc1ccc(-c2nc(-c3ccc(Oc4ccc(C(F)(F)F)cc4)cc3)no2)cc1	≥ 128 µg/mL
Oc1ccc(-c2nc(-c3ccc(Oc4ccc(C(F)(F)F)cc4)cc3)no2)cc1F	2 µg/mL (≈ 4.8 µM)
Cc1ccc(S(=O)(=O)N2CCC(c3nc(-c4ccc(Oc5ccccc5)cc4)no3)CC2)cc1	≥ 128 µg/mL
Oc1c(F)cc(-c2nc(-c3ccc(Oc4ccc(F)cc4)cc3)no2)cc1F	8 µg/mL (≈ 20.8 µM)
Cc1nc(-c2ccc(Oc3ccccc3)cc2)no1	≥ 128 µg/mL
Fc1ccc(Oc2ccc(-c3noc(-c4n[nH]cc4I)n3)cc2)cc1	4 µg/mL (≈ 8.92 µM)
Cl.c1ccc(Oc2ccc(-c3noc(C4CCNCC4)n3)cc2)cc1	32 µg/mL
FC(F)(F)c1ccc(Oc2ccc(-c3noc(-c4n[nH]cc4NC4CCCCC4)n3)cc2)cc1	≥ 128 µg/mL
Fc1ccc(Oc2ccc(-c3noc(-c4cc[nH]c4)n3)cc2)cc1	≥ 128 µg/mL
Nc1ccc(-c2nc(-c3ccc(Oc4ccccc4)cc3)no2)c(O)c1	≥ 128 µg/mL
[O-][n+]1ccc(-c2nc(-c3ccc(Oc4ccccc4)cc3)no2)cc1	≥ 128 µg/mL
CCn1ccc(-c2nc(-c3ccc(Oc4ccc(F)cc4)cc3)no2)n1	≥ 128 µg/mL
Nc1cncc(-c2nc(-c3ccc(Oc4ccc(C(F)(F)F)cc4)cc3)no2)c1	≥ 128 µg/mL
O=[N+]([O-])c1cc(-c2nc(-c3ccc(Oc4ccc(F)cc4)cc3)no2)ccc1O	≥ 128 µg/mL
Oc1ccc(-c2nc(-c3ccc(Oc4ccc(F)cc4)cc3)no2)cc1O	4 µg/mL (≈ 11 µM)
CC(=O)N1CCC(c2nc(-c3ccc(Oc4ccc(F)cc4)cc3)no2)CC1	≥ 128 µg/mL
Cc1ccc(S(=O)(=O)N2CCC(c3nc(-c4ccc(Oc5ccc(F)cc5)cc4)no3)CC2)cc1	≥ 128 µg/mL
Nc1c(F)cc(-c2nc(-c3ccc(Oc4ccccc4)cc3)no2)cc1F	8 µg/mL (≈ 21.9 µM)
O=C(O)c1ccc(-c2nc(-c3ccc(Oc4ccc(F)cc4)cc3)no2)cc1	≥ 128 µg/mL
Oc1ccc(-c2nc(-c3ccc(Oc4ccc(F)cc4)cc3)no2)cn1	≥ 128 µg/mL
O=C1CC(c2nc(-c3ccc(Oc4ccc(C(F)(F)F)cc4)cc3)no2)NC(=O)N1 (stereo not drawn)	≥ 128 µg/mL
